Usually melting point stands for the temperature of the solid-liquid transition.

Read-outs that look alike come from different tables or passages of the source. Where only a bound is given, the exact number is not on record here.

We go through 19 compounds from US7109216B2 (priority 2001, dated 2006).

Data set [1] has as its target T1, human cannabinoid CB1 receptor (Homo sapiens, UniProt P21554). As to the kind of experiment: biochemical. In kind it is binding. More on the design: expressed in transfected cells; host or cells: Chinese hamster ovary (CHO) cells, membrane preparation. Particulars: [3H]CP-55,940 radioligand, CHO cell membranes stably transfected with human CB1. Here is the method:
After incubation of a freshly prepared cell membrane preparation with the [^3H]-ligand, with or without addition of compounds of the invention, separation of bound and free ligand was performed by filtration over glassfiber filters. Radioactivity on the filter was measured by liquid scintillation counting.

For data set [2], the target named is T1, human cannabinoid CB1 receptor. The experiment in a line: Cannabinoid CB1 antagonistic activity, forskolin-induced cAMP accumulation in CHO cells. In kind it is cell-based. More on the design: expressed in transfected cells; host or cells: CHO cells. The method, then: The cannabinoid CB1 antagonistic activity of compounds of the invention was determined by functional studies using CHO cells in which human cannabinoid CB1 receptors were stably expressed. Adenylyl cyclase was stimulated using forskolin and measured by quantifying the amount of accumulated cyclic AMP. Concomitant activation of CB1 receptors by CB1 receptor agonists (e.g. CP-55,940 or (R)-WIN-55,212–2) can attenuate the forskolin-induced accumulation of cAMP in a concentration-dependent manner. This CB1 receptor-mediated response can be antagonized by CB1 receptor antagonists such as the compounds of the invention.

For data set [3], the target named is CB1 receptor (Homo sapiens, UniProt P21554). To be noted: Meschler et al. 2000; cited from earlier work.
CB1 receptor, sequence (P21554 whole entry): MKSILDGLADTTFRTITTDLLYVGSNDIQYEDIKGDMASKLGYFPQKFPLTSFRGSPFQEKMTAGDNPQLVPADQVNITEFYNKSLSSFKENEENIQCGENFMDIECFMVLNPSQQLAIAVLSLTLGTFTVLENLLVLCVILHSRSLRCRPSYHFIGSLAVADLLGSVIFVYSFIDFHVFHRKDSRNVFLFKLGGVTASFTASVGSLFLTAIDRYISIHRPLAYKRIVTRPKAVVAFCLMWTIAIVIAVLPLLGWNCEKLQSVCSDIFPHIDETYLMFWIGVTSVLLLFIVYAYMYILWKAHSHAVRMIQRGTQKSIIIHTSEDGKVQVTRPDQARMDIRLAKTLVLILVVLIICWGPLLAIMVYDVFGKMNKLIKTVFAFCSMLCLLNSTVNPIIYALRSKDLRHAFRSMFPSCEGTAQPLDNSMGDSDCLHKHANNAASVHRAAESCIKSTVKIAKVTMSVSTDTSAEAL
Where [4] appears, read: antagonism of CB1 agonist (e.g. CP-55,940 or (R)-WIN-55,212-2) effect on forskolin-induced cAMP accumulation, CHO cells expressing human CB1, read-out: hCB1 pA2 (converted).
[5] abbreviates: antagonism of CB1 agonist (e.g. CP-55,940 or (R)-WIN-55,212-2) effect on forskolin-induced cAMP accumulation, CHO cells expressing human CB1.

T1 sequence (P21554 whole entry): as above

On to `O=C(NN1CCCCC1)c1cn(-c2ccc(C(F)(F)F)cc2)c(-c2ccc(Cl)cc2Cl)n1` [Example 46, 2-(2,4-dichlorophenyl)-N-(piperidin-1-yl)-1-(4-(trifluoromethyl)phenyl)-1H-imidazole-4-carboxamide], for which the melting point was > 200 °C (dec.). In addition, in data set [1] (hCB1 pKi), the Ki is 50.1 nM. The Kb in data set [2] (setting [4]) is 6.31 nM.
Compound `O=C(NC1CCCCC1)c1cn(-c2ccc(Cl)cc2)c(-c2ccc(Cl)cc2C(F)(F)F)n1` [Example 38, 1-(4-Chlorophenyl)-N-cyclohexyl-2-(2-trifluoromethyl-4-chlorophenyl)-1H-imidazole-4-carboxamide] had a melting point of 172 °C. Also, in data set [1] (read-out: hCB1 pKi (converted)), the Ki was 200 nM. In data set [2], this compound showed a Kb of 20 nM.
`Cc1c(C(=O)NN2CCCCCC2)nc(-c2ccc(Cl)cc2Cl)n1-c1ccc(Cl)cc1` [Example 92, N-(Azepan-1-yl)-1-(4-chlorophenyl)-2-(2,4-dichlorophenyl)-5-methyl-1H-imidazole-4-carboxamide] came in with a melting point of 147 to 149 °C. In addition, the Ki in data set [1] (hCB1 pKi) is 63.1 nM. The Kb in data set [2] (setting [4]) was 1.58 nM.
With `Cc1c(C(=O)NN2CCCCC2)nc(-c2ccc(Cl)cc2Cl)n1-c1ccc(Br)cc1` [Example 17, 1-(4-Bromophenyl)-2-(2,4-dichlorophenyl)-5-methyl-N-(piperidin-1-yl)-1H-imidazole-4-carboxamide], the melting point was greater than 204 °C. Also, in data set [1] (hCB1 pKi), the Ki is 50.1 nM. Besides, the Kb in data set [2] (setting [4]) is 1.58 nM.
Regarding `COc1ccc(-c2c(C#N)c(C(=O)Nc3ccccc3)nn2-c2ccccc2Cl)cc1` [CP-272871], in data set [3], the “CB1 receptor subtype selectivity compared with SR141716A” value is given as “less CB1 receptor subtype-selective” and the “potency compared with SR141716A” value was “less potent”.
Consider `Cc1c(C(=O)NCc2ccc(C(F)(F)F)cc2)nc(-c2ccc(Cl)cc2Cl)n1-c1ccc(Cl)cc1` [Example 106, 1-(4-Chlorophenyl)-2-(2,4-dichlorophenyl)-5-methyl-N-(4-(trifluoromethyl)benzyl)-1H-imidazole-4-carboxamide], for which the melting point was 232 °C. In data set [1] (hCB1 pKi), this compound had a Ki of 100 nM. In addition, the “hCB1 pA2” value in data set [2] (setting [5]) amounted to 8.9.
In turn, `CCc1c(C(=O)NC2CCCCC2)nc(-c2ccc(Cl)cc2Cl)n1-c1ccc(Br)cc1` [Example 20, 1-(4-Bromophenyl)-N-cyclohexyl-2-(2,4-dichlorophenyl)-5-ethyl-1H-imidazole-4-carboxamide] displayed a melting point greater than 135 °C. Also, in data set [1] (hCB1 pKi), the Ki was 100 nM. Moreover, in data set [2] (setting [4]), the Kb is less than 1 nM.
Take `COc1ccc(-n2cc(C(=O)NC3CCCCC3)nc2-c2ccc(Cl)cc2Cl)cc1` [Example 36, N-Cyclohexyl-2-(2,4-dichlorophenyl)-1-(4-methoxyphenyl)-1H-imidazole-4-carboxamide]: the melting point lay within 175 to 176 °C. In data set [1] (hCB1 pKi), this compound showed a Ki of 158 nM. In data set [2] (setting [4]), the Kb is 6.31 nM.
Consider `COc1ccc(-n2c(-c3ccc(Cl)cc3Cl)nc(C(=O)NN3CCCCC3)c2C)cc1` [Example 63, 2-(2,4-Dichlorophenyl)-5-methyl-1-(4-methoxyphenyl)-N-(piperidin-1-yl)-1H-imidazole-4-carboxamide], for which the melting point was > 90 °C (dec.). The same compound gave a Ki in data set [1] (hCB1 pKi) of 79.4 nM. Besides, the Kb in data set [2] (setting [4]) is 1 nM.
In the case of `Cc1c(C(=O)NN2CCOCC2)nc(-c2ccc(Cl)cc2Cl)n1-c1ccc(Cl)cc1` [Example 94, 1-(4-Chlorophenyl)-2-(2,4-dichlorophenyl)-5-methyl-N-(morpholin-4-yl)-1H-imidazole-4-carboxamide], the melting point is 225 °C (dec.). In addition, the Ki in data set [1] (hCB1 pKi) is 100 nM. Further, the “hCB1 pA2” value in data set [2] (setting [5]) is given as 7.5.
The compound `COc1cc(Cl)ccc1-c1nc(C(=O)NC2CCCCC2)cn1-c1ccc(Cl)cc1` [Example 29, 1-(4-Chlorophenyl)-N-cyclohexyl-2-(2-methoxy-4-chlorophenyl)-1H-imidazole-4-carboxamide] displayed a melting point of 177 to 179 °C. In addition, the Ki in data set [1] (read-out: hCB1 pKi (converted)) was 398 nM. In addition, the Kb in data set [2] was 100 nM.
The like results for `O=C(NC1CCCCC1)c1cn(-c2ccc(C(F)(F)F)cc2)c(-c2ccc(Cl)cc2Cl)n1` [Example 48, N-Cyclohexyl-2-(2,4-dichlorophenyl)-1-(4-(trifluoromethyl)phenyl)-1H-imidazole-4-carboxamide] were, in that order, 199 to 200 °C, 316 nM and 0.251 nM.
The compound `Cc1c(C(=O)NN2CCCC2)nc(-c2ccc(Cl)cc2Cl)n1-c1ccc(Cl)cc1` [Example 93, 1-(4-Chlorophenyl)-2-(2,4-dichlorophenyl)-5-methyl-N-(pyrrolidin-1-yl)-1H-imidazole-4-carboxamide] displayed a melting point of 205 to 206 °C. The same compound showed a Ki in data set [1] (hCB1 pKi) of 20 nM. Also, the “hCB1 pA2” value in data set [2] (setting [5]) is reported as 8.2.
`O=C(NN1CCCCC1)c1cn(-c2ccc(Cl)cc2)c(-c2ccc(Cl)cc2C(F)(F)F)n1` [Example 39, 1-(4-Chlorophenyl)-N-(piperidin-1-yl)-2-(2-trifluoromethyl-4-chlorophenyl)-1H-imidazole-4-carboxamide]: the melting point was determined as 219 °C. The Ki in data set [1] (read-out: hCB1 pKi (converted)) was 316 nM. This compound also gave a Kb in data set [2] of 50.1 nM.
With `Cc1c(C(=O)NN2CCCCC2)nc(-c2ccc(Cl)cc2Cl)n1-c1ccc(F)cc1` [Example 62, 2-(2,4-Dichlorophenyl)-1-(4-fluorophenyl)-5-methyl-N-(piperidin-1-yl)-1H-imidazole-4-carboxamide], the melting point lay in the range of 223 to 224 °C. Further, the Ki in data set [1] (hCB1 pKi) is 31.6 nM. For the same compound, the “hCB1 pA2” value in data set [2] (setting [5]) came out at 7.7.
With `CSc1c(C(=O)NN2CCCCC2)nc(-c2ccc(Cl)cc2Cl)n1-c1ccc(Cl)cc1` [Example 120, 1-(4-Chlorophenyl)-2-(2,4-dichlorophenyl)-5-methylsulfanyl-N-(piperidin-1-yl)-1H-imidazole-4-carboxamide], the melting point is 170 °C (dec.). The same compound gave a Ki in data set [1] (hCB1 pKi) of 12.6 nM. Moreover, in data set [2] (setting [4]), the Kb was 0.631 nM.
The like results for `O=C(NN1CCCCC1)c1nc(-c2ccc(Cl)cc2Cl)n(-c2ccc(Cl)cc2)c1I` [Example 111, 1-(4-Chlorophenyl)-2-(2,4-dichlorophenyl)-5-iodo-N-(piperidin-1-yl)-1H-imidazole-4-carboxamide] were, in that order, 196 to 201 °C, 6.31 nM and 2.51 nM.
In the same order, the values of `O=C(NN1CCCCC1)c1nc(-c2ccc(Cl)cc2Cl)n(-c2ccc(Cl)cc2)c1Br` [Example 117, 1-(4-chlorophenyl)-2-(2,4-dichlorophenyl)-5-bromo-N-(piperidin-1-yl)-1H-imidazole-4-carboxamide] are 181.5 to 183 °C, 10 nM and 2.51 nM.
In the case of `O=C(NN1CCCCCC1)c1cn(-c2ccc(Br)cc2)c(-c2ccc(Cl)cc2Cl)n1` [Example 25, N-(Azepan-1-yl)-1-(4-bromophenyl)-2-(2,4-dichlorophenyl)-1H-imidazole-4-carboxamide], the melting point is 201 to 204 °C. Also, the Ki in data set [1] (read-out: hCB1 pKi (converted)) was 126 nM. Further, the Kb in data set [2] was 10 nM.
